# System: MDCKII cells
# Assay: Apparent permeability in MDCKII cells
# Assay type: in vitro ADME
# Conditions: Papp, average of A to B and B to A, 1 μM test compound, t=3 hr
# Protocol: Determination of apparent permeability was as follows. MDCKII cells (kindly provided by the Netherlands Cancer Institute, under a licensing agreement) were seeded on to 96-well transwell culture plates (Millipore Corp, Billerica, Mass.) and used in experiments after five days in culture. […] Substrate solution (150 μL) was added to either the apical (A) or the basolateral (B) compartment of the culture plate, and buffer (150 μL; HBSS, 10 mM HEPES, pH 7.4) with 10 μM cyclosporine A was added to the compartment opposite to that containing the substrate. At t=3 hr, 50 μL samples were removed from both sides of monolayers dosed with test compound and placed in 96 well plates, 50 μL internal standard (1 μM labetolol) and 100 μL HBSS was added to the samples. Samples were analyzed by LC/MS/MS using an Applied Biosystems SCIEX API 5000 triple quadruple mass spectrometer (Concord, ON, Canada) with a TurboIonSpray ion source in the positive ion mode. A Thermo Scientific Transcend LX-2 system (Franklin, Mass.) was coupled to the API 5000 with a flow rate of 800 μL/min to direct sample into the mass spectrometer.
# Papp was expressed as 10-6 cm/s.
row,Molecule,MDCK Permeability (cm × 10-6/sec)
1,C[C@@H]1C[C@H]2[C@@H]3C[C@H](F)C4=CC(=O)C=C[C@]4(C)[C@@]3(F)[C@@H](O)C[C@]2(C)[C@@]1(O)C(=O)SCCCCP(=O)(O)O [Compound 5],1.84 cm × 10-6/sec
2,CCCC1O[C@@H]2C[C@H]3[C@@H]4CCC5=Cc6c(cnn6-c6ccc(OCCCCCCP(=O)(O)O)cc6)C[C@]5(C)[C@H]4[C@@H](O)C[C@]3(C)[C@]2(C(=O)CO)O1 (stereo partly shown) [Compound 31],4.1 cm × 10-6/sec
3,CCC(=O)O[C@]1(C(=O)SCCCCCCP(=O)(O)O)[C@H](C)C[C@H]2[C@@H]3C[C@H](F)C4=CC(=O)C=C[C@]4(C)[C@@]3(F)[C@@H](O)C[C@@]21C [Compound 7],2 cm × 10-6/sec
4,CCCC1O[C@@H]2C[C@H]3[C@@H]4CCC5=Cc6c(cnn6-c6cccc(OCCCCP(=O)(O)O)c6)C[C@]5(C)[C@H]4[C@@H](O)C[C@]3(C)[C@]2(C(=O)CO)O1 (stereo partly shown) [Compound 28],1.6 cm × 10-6/sec
5,"C[C@@H]1C[C@H]2[C@@H]3C[C@H](F)C4=CC(=O)C=C[C@]4(C)[C@@]3(F)[C@@H](O)C[C@]2(C)[C@@]1(OC(=O)CCCCCCCCP(=O)(O)O)C(=O)SCF [Compound 18, (9-(((6S,8S,9R,10S,11S,13S,14S,16R,17R)-6,9-difluoro-17-(((fluoromethyl)thio)carbonyl)-11-hydroxy-10,13,16-trimethyl-3-oxo-6,7,8,9,10,11,12,13,14,15,16,17-dodecahydro-3H-cyclopenta[a]phenanthren-17-yl)oxy)-9-oxononyl)phosphonic acid]",<0.9 cm × 10-6/sec
6,"CCC(=O)O[C@]1(C(=O)SCF)[C@H](C)C[C@H]2[C@@H]3C[C@H](F)C4=CC(=O)C=C[C@]4(C)[C@@]3(F)[C@@H](O)C[C@@]21C [Fluticasone Propionate, reference compound]",21.5 cm × 10-6/sec
7,"CCCC1O[C@@H]2C[C@H]3[C@@H]4CCC5=CC(=O)C=C[C@]5(C)[C@H]4[C@@H](O)C[C@]3(C)[C@]2(C(=O)CO)O1 (stereo partly shown) [Budesonide, reference compound]",31.6 cm × 10-6/sec
8,"CCC(=O)O[C@]1(C(=O)SCCCCCCCCCCP(=O)(O)O)[C@H](C)C[C@H]2[C@@H]3C[C@H](F)C4=CC(=O)C=C[C@]4(C)[C@@]3(F)[C@@H](O)C[C@@]21C [Compound 3, (10-(((6S,8S,9R,10S,11S,13S,14S,16R,17R)-6,9-difluoro-11-hydroxy-10,13,16-trimethyl-3-oxo-17-(propionyloxy)-6,7,8,9,10,11,12,13,14,15,16,17-dodecahydro-3H-cyclopenta[a]phenanthrene-17-carbonyl)thio)decyl)phosphonic acid]",1.04 cm × 10-6/sec
9,C[C@@H]1C[C@H]2[C@@H]3C[C@H](F)C4=CC(=O)C=C[C@]4(C)[C@@]3(F)[C@@H](O)C[C@]2(C)[C@@]1(O)C(=O)SCCCCCCCCCCP(=O)(O)O [Compound 8],2.8 cm × 10-6/sec
10,C[C@@H]1C[C@H]2[C@@H]3C[C@H](F)C4=CC(=O)C=C[C@]4(C)[C@@]3(F)[C@@H](O)C[C@]2(C)[C@@]1(O)C(=O)SCCCCCCP(=O)(O)O [Compound 10],1.9 cm × 10-6/sec
11,CCCC1O[C@@H]2C[C@H]3[C@@H]4CCC5=Cc6c(cnn6-c6ccc(OCCCCP(=O)(O)O)cc6)C[C@]5(C)[C@H]4[C@@H](O)C[C@]3(C)[C@]2(C(=O)CO)O1 (stereo partly shown) [Compound 30],1.9 cm × 10-6/sec
12,CCC(=O)O[C@]1(C(=O)SCCCCP(=O)(O)O)[C@H](C)C[C@H]2[C@@H]3C[C@H](F)C4=CC(=O)C=C[C@]4(C)[C@@]3(F)[C@@H](O)C[C@@]21C [Compound 4],1.72 cm × 10-6/sec

# System: GILZ gene
# Assay: GILZ gene assay (qPCR, HUT78 / 786-O cells)
# Assay type: cell-based
# Conditions: at 10 uM
# Protocol: GILZ gene assays were conducted as follows. HUT78 cells were cultured in IMEM plus 20% heat inactivated FBS and cell density was maintained between 0.1 to 1.2 million/mL. 786-O cells were cultured in RPMI plus 10% heat inactivated FBS. Actively growing cells were harvested and resuspended in HBSS with 2% FBS at 1.1 million cells per mL then dispensed to 384-well V-bottom plates at 45 μL per well. Serially diluted ADC solution was added to the cell plate (5 μL per well) and mixed for 2 min. Cells were then cultured at 37° C., at 5% CO2 for a designated time before supernatant was removed. Cells were harvested in lysis buffer from the Cells-to-Ct kit (40 μL, Life Technologies, 4391851C) following the supplier's protocol and mixed for 10 min followed by addition of 5 μL per well of stop solution from the kit. cDNA was synthesized with a reverse transcription kit (Life Technologies, 4391852C) follow by qPCR using the TaqMan gene expression master mix (Life Technologies, 4369016) with GILZ gene assay (Life Technologies, Hs00608272_m1) and GAPDH assay (Hs2758991_g1) in a duplex format with 3-4 technical replicates.
row,Molecule,GILZ Max
1,"(6-(3-((3aR,4aS,4bS,11aR,11bS,12S,13aS,13bS)-12-hydroxy-13b-(2-hydroxyacetyl)-11a,13a-dimethyl-2-propyl-4,4a,5,6,11,11a,11b,12,13,13a-decahydro-[1,3]dioxolo[4″,5″:3′,4′]cyclopenta[1′,2′:5,6]naphtho[,2-f]indazol-8(3aH,4bH,13bH)-yl)phenoxy)hexyl)phosphonic acid [Compound 27]",80% (at

# Same assay, conditions: read-out: GILZ EC50
row,Molecule,EC50
1,"C[C@@H]1C[C@H]2[C@@H]3C[C@H](F)C4=CC(=O)C=C[C@]4(C)[C@@]3(F)[C@@H](O)C[C@]2(C)[C@@]1(OC(=O)CCCCCP(=O)(O)O)C(=O)SCF [Compound 19, (6-(((6S,8S,9R,10S,11S,13S,14S,16R,17R)-6,9-difluoro-17-(((fluoromethyl)thio)carbonyl)-11-hydroxy-10,13,16-trimethyl-3-oxo-6,7,8,9,10,11,12,13,14,15,16,17-dodecahydro-3H-cyclopenta[a]phenanthren-17-yl)oxy)-6-oxohexyl)phosphonic acid]",1.29 µM
2,"(6-(3-((3aR,4aS,4bS,11aR,11bS,12S,13aS,13bS)-12-hydroxy-13b-(2-hydroxyacetyl)-11a,13a-dimethyl-2-propyl-4,4a,5,6,11,11a,11b,12,13,13a-decahydro-[1,3]dioxolo[4″,5″:3′,4′]cyclopenta[1′,2′:5,6]naphtho[,2-f]indazol-8(3aH,4bH,13bH)-yl)phenoxy)hexyl)phosphonic acid [Compound 27]",2.76 µM

# Target: GR full length protein (glucocorticoid receptor) (Homo sapiens (Human), UniProt P04150)
# Sequence (P04150 whole entry): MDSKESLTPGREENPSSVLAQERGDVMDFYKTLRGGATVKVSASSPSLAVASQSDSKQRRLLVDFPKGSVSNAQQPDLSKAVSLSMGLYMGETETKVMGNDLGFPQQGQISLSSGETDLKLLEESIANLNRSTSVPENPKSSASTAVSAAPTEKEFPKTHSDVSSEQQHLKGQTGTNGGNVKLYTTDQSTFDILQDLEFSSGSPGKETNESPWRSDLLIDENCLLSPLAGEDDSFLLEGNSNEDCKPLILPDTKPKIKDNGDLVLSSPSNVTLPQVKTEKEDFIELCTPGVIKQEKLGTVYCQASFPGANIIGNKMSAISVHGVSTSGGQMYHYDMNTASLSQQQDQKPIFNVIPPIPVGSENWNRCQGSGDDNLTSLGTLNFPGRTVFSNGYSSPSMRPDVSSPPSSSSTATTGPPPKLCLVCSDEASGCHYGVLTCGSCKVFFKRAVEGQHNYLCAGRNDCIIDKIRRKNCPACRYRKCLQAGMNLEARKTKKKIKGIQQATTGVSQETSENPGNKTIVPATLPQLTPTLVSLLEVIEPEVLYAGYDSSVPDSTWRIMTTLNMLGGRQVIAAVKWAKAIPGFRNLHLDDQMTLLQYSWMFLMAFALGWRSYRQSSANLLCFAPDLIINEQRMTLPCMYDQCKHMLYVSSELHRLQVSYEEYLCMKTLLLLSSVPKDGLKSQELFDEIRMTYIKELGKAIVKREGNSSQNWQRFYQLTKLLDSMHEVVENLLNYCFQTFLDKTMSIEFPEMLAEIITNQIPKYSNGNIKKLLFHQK
# Assay: PolarScreen Glucocorticoid Receptor Competitor Assay (GR binding)
# Conditions: fluorescence polarisation competitor assay, 2-4 hours at room temperature; read-out: GR Bind IC50
# Protocol: The potency of binding to gucocorticoid receptor by small molecule compounds was measured with the PolarScreen™ Glucocorticoid Receptor Competitor Assay Kit, Red (Life Technology, Catalog #A15898) according to the procedure in the kit. In brief, after compounds were diluted and transferred into assay plates, the fluormone GS red and GR full length protein were subsequently added into the assay plates, along with the positive and negative controls. The samples were mixed on a shaker for 1 minute and then the plates were incubated at room temperature for 2-4 hours with minimal light exposure. The plates were read with an Envision and the relative fluorescent signals were calculated. The data were plotted in GraphPad Prism and the EC50 values were calculated with non-linear regression curve fit of the data in GraphPad Prism.
row,Molecule,IC50
1,"C[C@@H]1C[C@H]2[C@@H]3C[C@H](F)C4=CC(=O)C=C[C@]4(C)[C@@]3(F)[C@@H](O)C[C@]2(C)[C@@]1(OC(=O)CCCCCP(=O)(O)O)C(=O)SCF [Compound 19, (6-(((6S,8S,9R,10S,11S,13S,14S,16R,17R)-6,9-difluoro-17-(((fluoromethyl)thio)carbonyl)-11-hydroxy-10,13,16-trimethyl-3-oxo-6,7,8,9,10,11,12,13,14,15,16,17-dodecahydro-3H-cyclopenta[a]phenanthren-17-yl)oxy)-6-oxohexyl)phosphonic acid]",0.00014 µM
